According to US7205382B2, “Peptides, the production and use thereof for binding immunoglobulins” (Fresenius Medical Care Affina GmbH, priority 2000, dated 2007):
Bridge positions count the residues as written; N and C are the ends. Square brackets hold non-standard residues; d marks the D form. Ends that are not written are not given here. cellulose = not defined here; βAla = NCCC(=O)O

How the values were obtained:
Format in all cases: binding
Parameters in all cases: key: No binding of immunoglobulin for the defined peptide variant, detection negative: 0; Binding of immunoglobulin for the defined peptide variant, detection positive: +
serum albumin = test: Cellulose-immobilized 13-mer peptide variants incubated with serum albumin (negative control), anti-human IgG-AP detection; settings: blocking buffer without addition, 3 h room temperature
Method: (§1) Peptides consisting of 13 amino acids were synthesized by solid phase synthesis (Houghten, 1985) on a cellulose matrix with (βA)(βA) as a spacer group.
(§2) The immobilized peptides were tested for their immunoglobulin binding capability by incubation with human IgG-Fc in a buffered solution and by incubation with human plasma.
(§3) Thus, the peptide variants immobilized on solid phases were washed with T-TBS buffer (136 mM NaCl, 1.6 mM KCl, 0.05% (v/v) Tween 20, 50 mM Tris-HCl, pH 8.0) and subsequently treated with blocking buffers (5% (w/v) saccharose, 4% (w/v) bovine serum albumin in T-TBS). Incubation of the immobilized peptides with IgG-Fc (1 μg/ml) in blocking buffer and human serum (diluted 1:10,000 in blocking buffer) was effected for 3 h at room temperature. For checking the specificity of the binding, buffered serum albumin solution (blocking buffer) without addition was included as a control. Thereafter, the peptide variants immobilized on the solid phases were washed three more times with T-TBS buffer.
(§4) After incubation with alkaline phosphatase-conjugated anti-human IgG antibody (1.2 μg/ml) in blocking buffer, detection of the immunoglobulin binding was effected by means of NBT (nitroblue tetrazolium chloride)/BCIP (5-bromo-4-chloro-3-indolyl phosphate toluidine salt) as a substrate (200 μl of parent solution (18.75 mg/ml NBT and 9.4 mg/ml BCIP in 67% (v/v) DMSO) in 10 ml developing buffer (100 mM Tris-HCl, 100 mM NaCl, 5 mM MgCl2, pH 9.5)).

[1] = test system: immunoglobulins in human plasma; test: Cellulose-immobilized 13-mer peptide variants incubated with human plasma, anti-human IgG-AP detection; settings: human plasma as sample, diluted 1:10,000 in blocking buffer, 3 h room temperature
Method: as §1, §2, §3, §4

human IgG-Fc = test: Cellulose-immobilized 13-mer peptide variants incubated with human IgG-Fc, anti-human IgG-AP detection; settings: IgG-Fc 1 μg/ml in blocking buffer, 3 h room temperature
Method: as §1, §2, §3, §4

Row | Result for incubation with serum albumin (immunoglobulin binding detection) (serum albumin) | Result for incubation with human plasma (immunoglobulin binding detection) [1] | Result for incubation with human IgG-Fc (immunoglobulin binding detection) (human IgG-Fc) | Substance
1 | 0 | + | + | 08H: cellulose-bound 13-mer variant DCAWHLGHLVWCT-(βA)(βA) (DCAWHLGHLVWCT-{βAla-βAla-cellulose}; disulfide 2-12 (inferred); not fully specified (N-terminus); printed as DCAWHLGHLVWCT-(βA)(βA); reading uncertain)
2 | 0 | + | + | 04Y: cellulose-bound 13-mer variant DCAYHLGELVWCT-(βA)(βA) (disulfide 2-12 (inferred); not fully specified (N-terminus, C-terminus); printed as DCAYHLGELVWCT-(βA)(βA); also: cellulose-bound)
3 | 0 | 0 | 0 | 03G: cellulose-bound 13-mer variant DCGWHLGELVWCT-(βA)(βA) (DCGWHLGELVWCT-{βAla-βAla-cellulose}; disulfide 2-12 (inferred); reading uncertain; also: printed as DCGWHLGELVWCT-(βA)(βA))
4 | 0 | 0 | 0 | 01C: cellulose-bound 13-mer variant CCAWHLGELVWCT-(βA)(βA) (CCAWHLGELVWCT[βAla][βAla]; cysteine pairing not given here; also: bound to cellulose support)
5 | 0 | 0 | 0 | 09N: cellulose-bound 13-mer variant DCAWHLGENVWCT-(βA)(βA) (DCAWHLGENVWCT-{βAla-βAla-cellulose}; disulfide 2-12 (inferred); reading uncertain; also: printed as DCAWHLGENVWCT-(βA)(βA))
6 | 0 | + | + | 08K: cellulose-bound 13-mer variant DCAWHLGKLVWCT-(βA)(βA) (DCAWHLGKLVWCT-{βAla-βAla-cellulose}; disulfide 2-12 (inferred); not fully specified (N-terminus); printed as DCAWHLGKLVWCT-(βA)(βA); reading uncertain)
7 | 0 | 0 | + | 03K: cellulose-bound 13-mer variant DCKWHLGELVWCT-(βA)(βA) (DCKWHLGELVWCT-{βAla-βAla-cellulose}; disulfide 2-12 (inferred); reading uncertain; also: printed as DCKWHLGELVWCT-(βA)(βA))
8 | 0 | 0 | 0 | 11P: cellulose-bound 13-mer variant DCAWHLGELVPCT-(βA)(βA)
9 | 0 | + | + | 04V: cellulose-bound 13-mer variant DCAVHLGELVWCT-(βA)(βA) (disulfide 2-12 (inferred); not fully specified (N-terminus, C-terminus); printed as DCAVHLGELVWCT-(βA)(βA); also: cellulose-bound)
10 | 0 | 0 | 0 | 07N: cellulose-bound 13-mer variant DCAWHLNELVWCT-(βA)(βA) (DCAWHLNELVWCT-{βAla-βAla-cellulose}; disulfide 2-12 (inferred); not fully specified (N-terminus); printed as DCAWHLNELVWCT-(βA)(βA); reading uncertain)
11 | 0 | 0 | 0 | 03F: cellulose-bound 13-mer variant DCFWHLGELVWCT-(βA)(βA) (DCFWHLGELVWCT-{βAla-βAla-cellulose}; disulfide 2-12 (inferred); reading uncertain; also: printed as DCFWHLGELVWCT-(βA)(βA))
12 | 0 | 0 | + | 06E: cellulose-bound 13-mer variant DCAWHEGELVWCT-(βA)(βA) (DCAWHEGELVWCT[βAla][βAla]; disulfide 2-12 (inferred); not fully specified (N-terminus); printed as DCAWHEGELVWCT-(βA)(βA); also: cellulose-bound)
13 | 0 | 0 | 0 | 10H: cellulose-bound 13-mer variant DCAWHLGELHWCT-(βA)(βA) (DCAWHLGELHWCT-{βAla-βAla-cellulose}; disulfide 2-12 (inferred); reading uncertain; also: printed as DCAWHLGELHWCT-(βA)(βA))
14 | 0 | 0 | 0 | 07W: cellulose-bound 13-mer variant DCAWHLWELVWCT-(βA)(βA) (DCAWHLWELVWCT-{βAla-βAla-cellulose}; disulfide 2-12 (inferred); not fully specified (N-terminus); printed as DCAWHLWELVWCT-(βA)(βA); reading uncertain)
15 | 0 | 0 | 0 | 01T: cellulose-bound 13-mer variant TCAWHLGELVWCT-(βA)(βA) (TCAWHLGELVWCT-{βAla-βAla-cellulose}; disulfide 2-12 (inferred); reading uncertain; also: printed as TCAWHLGELVWCT-(βA)(βA))
16 | 0 | + | + | 04S: cellulose-bound 13-mer variant DCASHLGELVWCT-(βA)(βA) (disulfide 2-12 (inferred); not fully specified (N-terminus, C-terminus); printed as DCASHLGELVWCT-(βA)(βA); also: cellulose-bound)
17 | 0 | 0 | 0 | 07I: cellulose-bound 13-mer variant DCAWHLIELVWCT-(βA)(βA) (DCAWHLIELVWCT-{βAla-βAla-cellulose}; disulfide 2-12 (inferred); not fully specified (N-terminus); printed as DCAWHLIELVWCT-(βA)(βA); reading uncertain)
18 | 0 | 0 | + | 04L: cellulose-bound 13-mer variant DCALHLGELVWCT-(βA)(βA) (DCALHLGELVWCT[βAla][βAla]; disulfide 2-12 (inferred); also: cellulose-bound)
19 | 0 | + | + | 01A: cellulose-bound 13-mer variant ACAWHLGELVWCT-(βA)(βA) (ACAWHLGELVWCT-{βAla-βAla-cellulose}; disulfide 2-12 (inferred); reading uncertain; also: printed as ACAWHLGELVWCT-(βA)(βA))
20 | 0 | 0 | 0 | 08Y: cellulose-bound 13-mer variant DCAWHLGYLVWCT-(βA)(βA) (DCAWHLGYLVWCT-{βAla-βAla-cellulose}; disulfide 2-12 (inferred); reading uncertain; also: printed as DCAWHLGYLVWCT-(βA)(βA))
